Among the data in US20250084091A1, “INHIBITORS OF SARS-COV-2” (The Texas A&M University System, priority 2021, published 2025) are EC50, CC50 and IC50 values, retold here.

Data set [1] relates to SARS-CoV-2 (strain USA-WA1/2020). In words: microbe, parasite or virus in culture. The format is cell-based.
Data set [2] can be described thus: Uninfected host cell cytotoxicity counter screen. Type of data set: cell-based. The note with it: human. On the procedure:
Uninfected host cell cytotoxicity counter screen: HeLa-ACE2 cells were maintained as described for the infection assay and seeded in the assay-ready plates at 400 cells/well. Plates were incubated for 24 hours at 37° C. 5% CO2. To assess cell viability, the Image-iT DEAD green reagent was used according to manufacturer instructions. Cells were fixed with 4% paraformaldehyde, and counterstained with DAPI. Fixed cells are imaged as described above.
Viral replication data analysis: Data from the primary screen and the host cell cytotoxicity screen are normalized to neutral (DMSO) […] inhibitor controls (2.5 μM Remdesivir for antiviral effect and 10 μM puromycin for infected host cell toxicity). For the uninfected host cell cytotoxicity counter-screen 40 μM puromycin is used as the positive control. Concentration response experiments will be tested in triplicate.
(The purpose of a counterscreen is to sort out artefacts and off-target activity.)

The target of data set [3] is SARS-CoV-2 main protease (Mpro) (Severe acute respiratory syndrome coronavirus 2, UniProt P0DTD1). Put plainly: biochemical.
A further data set has as its system HeLa-ACE2 cells. Put plainly: cells. Type of data set: cell-based. Conditions: Table 2, total cell count in infected plates.
Setting [4] is: Severe acute respiratory syndrome coronavirus 2, Table 2, SARS-CoV-2 infected HeLa-ACE2 cells, read-out: CoV-2 HeLa EC50.
The mark [5] stands for this setting: Severe acute respiratory syndrome coronavirus 2, HeLa-ACE2, read-out: CoV-2 HeLa EC50, Table 2, SARS-CoV-2 infected HeLa-ACE2 cells.
The mark [6] stands for this setting: Table 2, uninfected cells, 24 hours, read-out: Uninfected HeLa-ACE2 CC50.

Read-outs that look alike come from different tables or passages of the source. Where only a bound is given, the exact number is not on record here.

`O=C(c1cc[nH]c(=O)c1)N1CCN(C2c3ccccc3CCc3ccccc32)CC1` [ZS-320, 4-[4-(2-tricyclo[9.4.0.03,8]pentadeca-1(11),3(8),4,6,12,14-hexaenyl)piperazine-1-carbonyl]-1H-pyridin-2-one]: the EC50 is 2.53 µM in data set [1] (setting [4]) and more than 9.61 µM in the data set on HeLa-ACE2 cells. In data set [2], this compound came in with a CC50 at 24 h of more than 39.8 µM. For the same compound, the half-inhibitory concentration (IC50) in data set [3] (Table 2, read-out: Enzyme IC50) is 1.18 µM.

In the case of `O=C(c1cncc(Cl)c1)N1CCC(C(O)(c2ccccc2)c2ccccc2)CC1` [NZ-779, [1-(5-chloropyridine-3-carbonyl)piperidin-4-yl]diphenylmethanol], the figures for the EC50 (in data set [1] (setting [4]); with HeLa-ACE2 cells) were 0.71 µM and more than 9.61 µM, respectively. Further, the CC50 at 24 h in data set [2] is more than 39.8 µM. For the same compound, the IC50 in data set [3] (Table 2, read-out: Enzyme IC50) was determined as 0.37 µM.

Regarding `CC(=O)Nc1cncc(C(=O)N2CCN(C(c3ccccc3)c3ccccc3)CC2)c1` [AA-624, N-(5-(4-benzhydrylpiperazine-1-carbonyl)pyridin-3-yl)acetamide], the figures for the 50% effective concentration (EC50) (in data set [1] (setting [4]); with HeLa-ACE2 cells) were 2.62 µM and more than 9.61 µM, respectively. The CC50 at 24 h in data set [2] was more than 39.8 µM. In data set [3] (Table 2, read-out: Enzyme IC50), the IC50 was found to be 0.89 µM.

With `O=C(c1cccnc1)N1CCN(C(c2ccc(F)cc2)c2ccc(F)cc2)CC1` [AA-598, (4-(bis(4-fluorophenyl)methyl)piperazin-1-yl)(yridine-3-yl)methanone], the 50% effective concentration (EC50) (in data set [1] (setting [5]); in the data set on HeLa-ACE2 cells) was more than 9.61 µM each time. Besides, in data set [2], the CC50 at 24 h was more than 39.8 µM. Further, the IC50 in data set [3] (Table 2, read-out: Enzyme IC50) worked out at 1.9 µM.

On to `O=C(c1cncc(C(F)(F)F)c1)N1CCN(C(c2ccccc2)c2cccnc2)CC1` (stereo not shown) [MKP-1195, 1-[phenyl(pyridin-3-yl)methyl]-4-[5-(trifluoromethyl)pyridine-3-carbonyl]piperazine], for which the EC50 in data set [1] (setting [4]) was 8.77 µM; in the data set with HeLa-ACE2 cells, more than 9.61 µM. This compound had a CC50 at 24 h in data set [2] of more than 39.8 µM. Besides, the IC50 in data set [3] (Table 2, read-out: Enzyme IC50) was 2.68 µM.

For `O=C(c1cncc2cc[nH]c12)N1CC2CCC(C1)N2C(c1ccccc1)c1ccccc1` [AA-643, (8-benzhydryl-3,8-diazabicyclo[3.2.1]octan-3-yl)(1H-pyrrolo[3,2-c]pyridin-7-yl)methanone], the EC50 in data set [1] (setting [5]) worked out at 0.348 µM; in the data set on HeLa-ACE2 cells, 1.05 µM. Moreover, the CC50 at 24 h in data set [2] (setting [6]) was 21.5 µM. Half-maximal inhibition in data set [3] (Enzyme IC50, Table 2) (IC50) required 0.058 µM.

With `Cc1cncc(C(=O)N2CCC(=C3c4ccccc4CS(=O)(=O)c4ccccc43)CC2)c1` [NZ-801, [4-(5,5-dioxo-6H-benzo[c][1]benzothiepin-11-ylidene)-1-piperidyl]-(5-methyl-3-pyridyl)methanone], the half-maximal effective concentration (EC50) in data set [1] (Severe acute respiratory syndrome coronavirus 2, HeLa, Table 3, read-out: CoV-2 HeLa EC50) is 0.042 µM; in data set [1] (setting [4]), 0.042 µM; with HeLa-ACE2 cells, 0.081 µM. This compound also registered a 50% cytotoxic concentration (CC50) at 24 h in data set [2] of more than 39.8 µM. For the same compound, the IC50 in data set [3] (Table 2, read-out: Enzyme IC50) turned out to be 0.056 µM; in data set [3] (Table 3, select example compounds against mpro, read-out: Enzyme IC50), 0.012 µM.

On to `Cc1cncc(C(=O)N2CCN(C(c3ccccc3)c3ccccc3F)CC2)c1` (stereo not shown) [MKP-1287, 1-[(2-fluorophenyl)(phenyl)methyl]-4-(5-methylpyridine-3-carbonyl)piperazine], for which the figures for the EC50 (in data set [1] (setting [4]); in the data set on HeLa-ACE2 cells) were 0.599 µM and 0.81 µM, respectively. In addition, the CC50 at 24 h in data set [2] is more than 39.8 µM. In data set [3] (Table 2, read-out: Enzyme IC50), the IC50 came to 0.066 µM.

On to `O=C(c1cnccn1)N1CCN(C(c2ccccc2)c2ccccc2)CC1` [AA-579, (4-benzhydrylpiperazin-1-yl)(pyrazin-2-yl)methanone], for which the EC50 (in data set [1] (setting [5]); in the data set with HeLa-ACE2 cells) was more than 9.61 µM throughout. In data set [2], the 50% cytotoxic concentration (CC50) at 24 h was more than 39.8 µM. Besides, the IC50 in data set [3] (Table 2, read-out: Enzyme IC50) turned out to be 7.7 µM.

As to `CC(=O)Nc1cccc(C(c2ccccc2)N2C3CCC2CN(C(=O)c2cncc(C)c2)C3)c1` (stereo not shown) [AA-627, N-(3-((3-(5-methylnicotinoyl)-3,8-diazabicyclo[3.2.1]octan-8-yl)(phenyl)methyl)phenyl)acetamide], the EC50 in data set [1] (setting [5]) was 3 µM; in the data set on HeLa-ACE2 cells, more than 9.61 µM. Further, the CC50 at 24 h in data set [2] (setting [6]) was more than 39.8 µM. The compound further had an IC50 in data set [3] (Enzyme IC50, Table 2) of 0.048 µM.

On to `Cc1cncc(C(=O)N2CCN(C(c3ccccc3)c3ccc(F)cc3)CC2)c1` (stereo not shown) [AA-620, (4-((4-fluorophenyl)(phenyl)methyl)piperazin-1-yl)(5-methylpyridin-3-yl)methanone], for which the EC50 in data set [1] (setting [4]) came to 0.717 µM; in the data set with HeLa-ACE2 cells, 0.841 µM. In addition, the CC50 at 24 h in data set [2] was more than 39.8 µM. Further, the IC50 in data set [3] (Table 2, read-out: Enzyme IC50) was found to be 0.26 µM.

For `O=C(c1cc(Br)cnc1Cl)N1CCN(C(c2ccccc2)c2ccccc2)CC1` [AA-606, (4-benzhydrylpiperazin-1-yl)(5-bromo-2-chloropyridin-3-yl)methanone], the concentration giving a half-maximal response (EC50) (in data set [1] (setting [5]); in the data set on HeLa-ACE2 cells) was more than 9.61 µM throughout. The compound also displayed a CC50 at 24 h in data set [2] of more than 39.8 µM. The IC50 in data set [3] (Table 2, read-out: Enzyme IC50) was more than 10 µM.

In the case of `NC(=O)c1cncc(C(=O)N2CCN(C3c4ccccc4CCc4ccccc43)CC2)c1` [ZS-347, 5-[4-(2-tricyclo[9.4.0.03,8]pentadeca-1(11),3(8),4,6,12,14-hexaenyl)piperazine-1-carbonyl]pyridine-3-carboxamide], the EC50 in data set [1] (setting [4]) was 4.25 µM; with HeLa-ACE2 cells, more than 9.61 µM. In data set [2], this compound had a CC50 at 24 h of more than 39.8 µM. Moreover, the IC50 in data set [3] (Table 2, read-out: Enzyme IC50) amounted to 1.7 µM.

On to `COC(=O)c1cncc(C(=O)N2CCN(C3c4ccccc4CCc4ccccc43)CC2)c1` [ZS-338, methyl 5-[4-(2-tricyclo[9.4.0.03,8]pentadeca-1(11),3(8),4,6,12,14-hexaenyl)piperazine-1-carbonyl]pyridine-3-carboxylate], for which the EC50 in data set [1] (setting [4]) is 7.07 µM; in the data set with HeLa-ACE2 cells, more than 9.61 µM. Also, in data set [2], the CC50 at 24 h was more than 39.8 µM. For the same compound, the IC50 in data set [3] (Table 2, read-out: Enzyme IC50) was more than 1 µM.

Turning to `Cc1cncc(CN2CCN(C(c3ccccc3)c3ccccc3)CC2=O)c1` [AA-645, 4-benzhydryl-1-((5-methylpyridin-3-yl)methyl)piperazin-2-one], the EC50 (in data set [1] (setting [5]); with HeLa-ACE2 cells) was more than 9.61 µM throughout. Further, the CC50 at 24 h in data set [2] is more than 39.8 µM.

Take `N#CC(c1cccnc1)N1CCN(C(c2ccccc2)c2ccccc2)CC1` (stereo not shown) [MKP-1306, 2-[4-(diphenylmethyl)piperazin-1-yl]-2-(pyridin-3-yl)acetonitrile]: the EC50 (in data set [1] (setting [5]); in the data set on HeLa-ACE2 cells) was more than 9.61 µM in each case. In data set [2], this compound registered a CC50 at 24 h of more than 39.8 µM.

Take `Cc1oncc1C(=O)N1CCN(C(c2ccccc2)c2ccccc2)CC1` [MKP-1332, (4-benzhydrylpiperazin-1-yl)(5-methylisoxazol-4-yl)methanone]: the EC50 (in data set [1] (setting [5]); in the data set with HeLa-ACE2 cells) was more than 9.61 µM each time. Moreover, the CC50 at 24 h in data set [2] is more than 39.8 µM.

Consider `Cc1cncc(NC(=O)N2CCN(C(c3ccccc3)c3ccccc3)CC2)c1` [MKP-1323, 4-benzhydryl-N-(5-methylpyridin-3-yl)piperazine-1-carboxamide], for which the EC50 (in data set [1] (setting [5]); with HeLa-ACE2 cells) was more than 9.61 µM each time. Also, in data set [2], the CC50 at 24 h was determined as 31.7 µM.

Turning to `Nc1ccc(C(=O)N2CCN(C(c3ccccc3)c3ccccc3)CC2)cn1` [MKP-1309, 5-[4-(diphenylmethyl)piperazine-1-carbonyl]pyridin-2-amine], the EC50 (in data set [1] (setting [5]); with HeLa-ACE2 cells) was more than 9.61 µM in each case. This compound returned a half-maximal cytotoxic concentration (CC50) at 24 h in data set [2] of more than 39.8 µM.

On to `C=C(C)C(=O)N1CCN(C(c2ccccc2)c2ccccc2)CC1` [MKP-1219, 1-[4-(diphenylmethyl)piperazin-1-yl]-2-methylprop-2-en-1-one], for which the EC50 (in data set [1] (setting [5]); with HeLa-ACE2 cells) was more than 9.61 µM in each case. Also, in data set [2], the CC50 at 24 h is more than 39.8 µM.

Consider `O=C(c1cccnc1Cl)N1CCN(C2c3ccccc3CCc3ccccc32)CC1` [ZS-333, (2-chloro-3-pyridyl)-[4-(2-tricyclo[9.4.0.03,8]pentadeca-1(11),3(8),4,6,12,14-hexaenyl)piperazin-1-yl]methanone], for which the EC50 (in data set [1] (setting [5]); in the data set with HeLa-ACE2 cells) was more than 9.61 µM throughout. The same compound returned a CC50 at 24 h in data set [2] of more than 39.8 µM.

With `O=C(NC1CN(C(c2ccccc2)c2ccccc2)C1)c1cccnc1` [AA-603, N-(1-benzhydrylazetidin-3-yl)nicotinamide], the EC50 (in data set [1] (setting [5]); in the data set on HeLa-ACE2 cells) was more than 9.61 µM each time. The CC50 at 24 h in data set [2] is more than 39.8 µM.

On to `O=C1CC(C(=O)N2CCC(C(O)(c3ccccc3)c3ccccc3)CC2)CN1` (stereo not shown) [NZ-790, 4-[4-(hydroxydiphenylmethyl)piperidine-1-carbonyl]pyrrolidin-2-one], for which the EC50 (in data set [1] (setting [5]); with HeLa-ACE2 cells) was more than 9.61 µM throughout. The compound further came in with a CC50 at 24 h in data set [2] of more than 39.8 µM.

`O=C1CC(C(=O)N2CCC(C(O)(c3ccccc3)c3ccccc3)CC2)CCN1` (stereo not shown) [NZ-789, 4-[4-(hydroxydiphenylmethyl)piperidine-1-carbonyl]piperidin-2-one]: the EC50 (in data set [1] (setting [5]); with HeLa-ACE2 cells) was more than 9.61 µM each time. Further, the half-maximal cytotoxic concentration (CC50) at 24 h in data set [2] was more than 39.8 µM.

Take `O=C(c1ccon1)N1CCN(C(c2ccccc2)c2ccccc2)CC1` [MKP-1324, 1-(diphenylmethyl)-4-(1,2-oxazole-3-carbonyl)piperazine]: the half-maximal effective concentration (EC50) (in data set [1] (setting [5]); in the data set with HeLa-ACE2 cells) was more than 9.61 µM throughout. The cytotoxic concentration (CC50) at 24 h in data set [2] is more than 39.8 µM.

Regarding `N#Cc1ccc(C(=O)N2CCN(C(c3ccccc3)c3ccccc3)CC2)cn1` [MKP-1229, 5-[4-(diphenylmethyl)piperazine-1-carbonyl]pyridine-2-carbonitrile], the EC50 (in data set [1] (setting [5]); in the data set on HeLa-ACE2 cells) was more than 9.61 µM throughout. This compound gave a CC50 at 24 h in data set [2] of more than 39.8 µM.

Broadly, the EC50 is the concentration that produces a half-maximal response. Usually CC50 stands for the concentration giving 50% cytotoxicity. For orientation: IC50 means the concentration that inhibits the measured activity by half.
